{"source": "paper PMC12132910", "about": "“A Novel Inhibitor against the Bromodomain Protein 1 of the Malaria Pathogen Plasmodium Falciparum” (Chemmedchem, 2025)", "key": {"P. falciparum 3D7 [1]": {"system": "P. falciparum 3D7", "assay": "Malaria SYBR green I based fluorescence assay, dose response, 3D7", "format": "cell-based", "details": "Plasmodium falciparum, blood stage culture, 72 hours, mean (SD), 1 to 3 biological replicates", "method": "(§1) The BRDi compounds had modest activity against all three strains (Table 2 ). […]\n(§2) Shield1. Parasites were propagated in human red blood cells (blood group 0+) obtained from the Bavarian Red Cross service (BRK) and cultivated under standard conditions in RPMI 1640 (ThermoFisher) supplemented with 0.5% Albumax\n(§3) (ThermoFisher), 20 µg/ml Gentamycin, 25 mM Hepes (pH 7.3), and 0.02% hypoxanthine in an atmosphere of 1% O2, 5% CO2, 94% N2.\n(§4) Malaria SYBR green I based fluorescence assay\n(§5) SYBR Green I based fluorescence assays to determine dose-response curves were performed essentially as described previously (Leidenberger et al., 2017). Briefly, parasite cultures were diluted to 1% ring stage parasitemia and cultivated at 2.5% haematocrit in 96 well plates in the presence of serial half-log dilutions of the compounds ranging from 100 µM to 10 nM or DMSO (dimethyl sulfoxide) corresponding to the highest concentration (0.1%). Chloroquine (C6628, Sigma-Aldrich) was used as control that was not expected to target PfBDP1 and was titrated from 5 µM to 1.6 nM. After 72 hours, cultures were lysed in lysis buffer (20 mM Tris-HCl, 5 mM EDTA, 0.008% saponin (Sigma-Aldrich), 0.08% Triton X (Sigma-Aldrich), 1:10,000 SYBR Green I dye (Invitrogen)) and fluorescence was measured in a Fluoroskan Ascent FL reader (excitation: 485 nm, emission: 530 nm). […]"}, "P. falciparum NF54 [2]": {"system": "P. falciparum NF54", "assay": "Malaria SYBR green I based fluorescence assay, dose response, NF54", "format": "cell-based", "details": "Plasmodium falciparum, blood stage culture, 72 hours, mean (SD), 1 to 3 biological replicates", "method": "as §1, §2, §3, §4, §5"}, "[3]": {"system": "P. falciparum K1 (multidrug resistant)", "assay": "Malaria SYBR green I based fluorescence assay, dose response, K1", "format": "cell-based", "details": "Plasmodium falciparum, K1, 72 h, read-out: EC50 K1", "method": "as §1\nresistant strain K1, MRA-159, contributed by Dennis E. Kyle. […]\nas §2, §3, §4, §5"}, "P. falciparum 3D7 [4]": {"system": "P. falciparum 3D7", "assay": "Growth of synchronous ring-stage cultures under treatment, 3D7", "format": "cell-based, Plasmodium falciparum", "details": "3D7, synchronous ring stage, 48 h of treatment"}, "P. falciparum NF54 [5]": {"system": "P. falciparum NF54", "assay": "Growth of synchronous ring-stage cultures under treatment, NF54", "format": "cell-based, Plasmodium falciparum", "details": "48 h of treatment"}, "[6]": {"system": "P. falciparum blood stage parasites", "assay": "Morphology and stage progression of treated synchronous parasites", "format": "cell-based, Plasmodium falciparum"}, "[7]": {"system": "3D7::PfBDP1HADD parasites", "assay": "Dose-response assay in conditional PfBDP1 knockdown parasites", "format": "cell-based, Plasmodium falciparum", "details": "10 nM Shld1 compared to 500 nM Shld1, 72 h", "source_text": "To validate whether the compounds indeed target the BRD of PfBDP1, we utilized a conditional KD system to modulate the expression levels of PfBDP1 in situ.^[ [15] ^] In the 3D7::PfBDP1HADD line, PfBDP1 is fused at its C‐terminus to a ligand‐regulatable FKBP destabilization domain (DD) that targets the fusion protein for proteasomal degradation but can be stabilized by the Shield1 ligand, and 3xHA epitope tags for detection ^11. […] In contrast, the EC50 of chloroquine was unchanged.\nA) Western Blot analysis of 3D7::PfBDP1HADD parasites cultivated in the presence of Shield1 (Shld) in concentrations ranging from 0 to 500 nM over 72 h in duplicates. PfBDP1HADD was detected by anti‐HA antibodies. Histone 3 (H3) was probed as a loading control. […] Growth was determined relative to DMSO controls for each condition after 72 h of culture. N = 4 replicates. […] Binding of PfBDP1HA to target loci was calculated as enrichment relative to histone H3 ChIP performed in parallel. Shown are individual values and median of one representative experiment with technical duplicates. Paired t‐test, p = 0.0015. […]\nresistant strain K1, MRA-159, contributed by Dennis E. Kyle. The NF54::PfBDP1HA parasite line was generated by transfection of NF54 parasites with the plasmid pSLI_PfBDP1_3xHA and selection linked integration of the construct in the presence of G418[21]. […]\nas §4\nSYBR Green I based fluorescence assays to determine dose-response curves were performed essentially as described previously (Leidenberger et al., 2017). […] After 72 hours, cultures were lysed in lysis buffer (20 mM Tris-HCl, 5 mM EDTA, 0.008% saponin (Sigma-Aldrich), 0.08% Triton X (Sigma-Aldrich), 1:10,000 SYBR Green I dye (Invitrogen)) and fluorescence was measured in a Fluoroskan Ascent FL reader (excitation: 485 nm, emission: 530 nm). […]"}}, "data": [{"smiles": "Cc1cc(C(N)=O)ccc1-c1[nH]c(C)c2c1CCCCC2=O", "note": "[RMM23, 3-Methyl-4-(3-methyl-4-oxo-2,4,5,6,7,8-hexahydrocyclohepta[c]pyrrol-1-yl)benzamide]", "values": [{"measurement": "EC50", "setting": "P. falciparum 3D7 [1]", "value": 18.3, "unit": "µM"}, {"measurement": "EC50", "setting": "P. falciparum NF54 [2]", "value": 14, "unit": "µM"}, {"measurement": "EC50", "setting": "[3]", "value": 20.9, "unit": "µM"}, {"measurement": "parasite growth after treatment of ring-stage culture", "setting": "P. falciparum 3D7 [4]", "value": "significantly reduced growth"}, {"measurement": "parasite growth after treatment of ring-stage culture", "setting": "P. falciparum NF54 [5]", "value": "significantly reduced growth"}, {"measurement": "parasite development (morphology) after treatment from ring stage", "setting": "[6]; treatment started at ring stage, normal trophozoites by 24 h", "value": "failed to undergo DNA replication and schizogony"}, {"measurement": "parasite development after treatment from trophozoite stage", "setting": "[6]; treatment started at trophozoite stage, within 24 h, relative to DMSO control", "value": "block in egress and reinvasion"}, {"measurement": "change of sensitivity (dose-response, EC50) under partial PfBDP1 knockdown", "setting": "[7]", "value": "increased sensitivity"}]}]}
